In US5464825A, “Raising glutathione equivalent levels using N-acyl glutathione monoesters” (Cornell Research Foundation, Inc., priority 1994, dated 1995):
Like-named read-outs stand apart in the source and are kept apart here. *1 amine or outer side, *2 acyl side, *3 side chain or, on linkers, in order; H or OH if unused. Where a SMILES comes first, the peptide text is derived from it. [ ]: non-standard residue; d: D form. γGlu = O=C(O)[C@H](CCC(=O)[*:2])N[*:1]

[1] = kidney, 1 hour after 10 mmol/kg i.p., fasted BSO treated mice
[2] = kidney, 2.5 hours after 10 mmol/kg i.p., fasted BSO treated mice
[3] = liver, 1 hour after 10 mmol/kg i.p., fasted BSO treated mice
[4] = liver, 2.5 hours after 10 mmol/kg i.p., fasted BSO treated mice
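Further: mice fasted 18 h, given 10 mM BSO in drinking water plus BSO 2 mmol/kg 13 h and 3 h before dosing, controls got 0.9% NaCl, mean ± SD.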

Procedure: The N-acetyl GSH monoethyl ester was used. A solution of N-acetyl GSH monoester was prepared in aseptic water. Mice weighing 18 to 25 grams, obtained from Taconic Farms, Inc., (TAC:(SWFBR)), were fasted for 18 hours before injection with NAGEE. At the time of fasting, the drinking water contains 10 mM L-buthionine-SR-sulfoximine (BSO). All mice are injected with L-buthionine-SR-sulfoximine (BSO) (2 millimoles per kilogram; intraperitoneally) 13 hours before NAGEE injection. The mice are injected again with L-buthionine-SR-sulfoxminie (BSO) (2 millimoles per kg; subcutaneously) 3 hours prior to NAGEE injection. NAGEE or GSH are administered intraperitoneally (10 mmol/kg; the pH of the solution is adjusted to about 7 with sodium hydroxide). The GSH solution also contains ethanol at 10 mmol/kg. Control mice are given equivalent volumes of 0.9% sodium chloride. The mice were then injected intraperitoneally with the N-acetyl GSH monoethyl ester in a dose of 10 millimoles per kilogram. […] Using groups of 4 or 5 mice each, values are given as means plus or minus S.D.

N[C@@H](CCC(=O)N[C@@H](CS)C(=O)NCC(=O)O)C(=O)O [GSH, L-γ-glutamyl-L-cysteinylglycine, reference compound]
effect on glutathione levels in the kidney as compared to the controls (in words) (kidney, 10 mmol/kg i.p., fasted BSO treated mice): only a slight effect | GSH level, kidney [1]: 1.9 µmol/g | GSH level, kidney [2]: 1.01 µmol/g | GSH level, liver [3]: 1.38 µmol/g | GSH level, liver [4]: 0.45 µmol/g

CCOC(=O)CNC(=O)[C@H](CS)NC(=O)CC[C@H](NC(C)=O)C(=O)O [NAGEE, N-acetyl glutathione monoethyl ester] (Ac-[γGlu]-Cys-Gly-OEt)
levels of GSH monoethyl ester, NAGEE and NAG found (in words) (kidney, 10 mmol/kg i.p.): substantial levels | GEE level, kidney [1]: 0.92 µmol/g | GSH equivalents total, kidney [1]: 10.51 µmol/g | GSH level, kidney [1]: 1.6 µmol/g | NAG level, kidney [1]: 1.43 µmol/g | NAGEE level, kidney [1]: 5.54 µmol/g | GEE level, kidney [2]: 0.52 µmol/g | GSH equivalents total, kidney [2]: 5.67 µmol/g | GSH level, kidney [2]: 2.3 µmol/g | NAG level, kidney [2]: 0.79 µmol/g | NAGEE level, kidney [2]: 2.10 µmol/g | GSH level of the kidney (in words, FIGS. 1 and 2) (kidney, 2.5 hours after administration, 10 mmol/kg i.p.): increased substantially | GSH level of the kidney (in words) (kidney, at 5 hours, 10 mmol/kg i.p.): declined | GSH mono-ethyl ester found in the liver (in words) (liver, 10 mmol/kg i.p.): a little | GEE level, liver [3]: 0.18 µmol/g | GSH equivalents total, liver [3]: 14.28 µmol/g | GSH level, liver [3]: 0.45 µmol/g | NAG level, liver [3]: 4.80 µmol/g | NAGEE level, liver [3]: 8.85 µmol/g | GEE level, liver [4]: 0.15 µmol/g | GSH equivalent total, liver [4]: 7.17 µmol/g | GSH level, liver [4]: 0.71 µmol/g | NAG level, liver [4]: 3.38 µmol/g | NAGEE level, liver [4]: 2.93 µmol/g | liver levels of N-acetyl GSH (in words) (liver, at 1 and 2.5 hours, 10 mmol/kg i.p.): increased dramatically | liver levels of GSH (in words) (liver, at 2.5 hours, 10 mmol/kg i.p.): increased moderately
